As a reminder, the IC50 is the midpoint of a concentration-inhibition curve.

Counter-ions that a name gives are not always drawn.

Consider 29 compounds from patent publication US8198456B2, “Dihydropyridine derivatives as useful as protein kinase inhibitors” (Bayer Intellectual Property GmbH, priority 2006, dated 2012).

For this assay, the target named is T1, recombinant human c-MET kinase enzyme domain (Homo sapiens, UniProt P08581).
T1 construct: Recombinant c-Met kinase domain (amino acids 960-1390); His (N); made in house; host or cells: baculovirus expression system (insect cells; SF21 is named only for the alternative format)
T1 sequence (P08581 960-1390): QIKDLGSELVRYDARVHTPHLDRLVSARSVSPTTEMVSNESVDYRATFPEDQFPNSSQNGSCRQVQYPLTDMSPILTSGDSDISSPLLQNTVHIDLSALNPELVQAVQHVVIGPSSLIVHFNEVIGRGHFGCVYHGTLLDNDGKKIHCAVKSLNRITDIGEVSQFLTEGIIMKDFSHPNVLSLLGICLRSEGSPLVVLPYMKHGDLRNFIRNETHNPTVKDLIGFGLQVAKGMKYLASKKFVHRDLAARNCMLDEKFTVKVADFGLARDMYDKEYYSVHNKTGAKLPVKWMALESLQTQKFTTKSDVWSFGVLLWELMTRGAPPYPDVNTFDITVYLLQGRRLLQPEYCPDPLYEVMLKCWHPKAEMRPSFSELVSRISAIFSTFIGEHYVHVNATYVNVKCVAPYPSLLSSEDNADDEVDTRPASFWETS
The experiment in a line: c-MET receptor tyrosine kinase Homogeneous Time Resolved Fluorescence assay (HTRF). The format is biochemical. The following applies: Biological Example 1 and/or Biological Example 2. The text has this:
Recombinant c-Met kinase domain (amino acids 960-1390) was produced in a baculovirus expression vector as an N-terminal His-tagged fusion protein and purified on a NiNTA column. The resulting purified enzyme was then used in the following c-Met Homogeneous Time Resolved Fluorescence assay (HTRF) to find compounds of the invention and to perform initial activity determinations. Specifically, this assay measures the ability of compounds of the invention to inhibit the phosphorylation of a randomly synthesized, biotinylated heterocopolymeric polypeptide composed of glutamic acid and tyrosine, with an average length of 100 aa. The assay analyzes the amount of phosphorylated polypeptide produced.
The enzymatic phosphorylation of the biotinylated heterocopolymeric polypeptide was performed in a black 384-well plate at ambient temperature in a reaction mixture containing 50 mM HEPES (pH 7.4), 5 mM MgCl2, 5 mM MnCl2, 0.01% Tween-20, and 2 mM DTT, […] recombinant human c-MET kinase enzyme domain, 37 nM biotinylated heterocopolymeric polypeptide composed of glutamic acid and tyrosine, 20 μM ATP, 1% DMSO in the absence or presence of a compound of the invention. The reaction was stopped after a 20-minute incubation by the addition of 80 mM EDTA.
The formation of phosphorylated heterocopolymeric, biotinylated polypeptide was quantified with the HTRF assay technology using an anti-phosphotyrosine antibody, PT66, conjugated to europium cryptate, mixed with a streptavidin-XL665 conjugate. Reduced or inhibited phosphorylation of the heterocopolymeric, biotinylated polypeptide prevents the anti-phosphotyrosine antibody from binding to the peptide, resulting in a loss of energy transfer to the streptavidin-XL665 conjugate.
Following the 384-well enzymatic phosphorylation reaction outlined above, the detection of phosphorylated heterocopolymeric, biotinylated polypeptide was performed by dilution of the stopped reaction mixture 2-fold with 50 mM HEPES (pH 7.0), 500 mM KF, 0.1% BSA, streptavidin-XL665 (20 nM), and anti-phosphotyrosine antibody PT66-crypate conjugate (6.4 ng/well) and incubation for four hours at ambient temperature. Plates were read in an Envision plate reader (PerkinElmer Life and Analytical Sciences, Inc., MA) simultaneously at 620 nm and 665 nm to obtain signal ratios of 665 nm/620 nm. Results of energy transfer were expressed as signal ratios of 665 nm/620 nm. Negative controls were samples without recombinant c-MET or c-MET treated with 100 mM EDTA.
For determination of IC50 values of particular compounds of the invention, eight serially diluted compound concentrations (at 1:3.16 dilution) were used in the assay. Controls without a compound of the invention or with a reference compound were run in parallel in the same assay plate.
In the case of `CC1=C(C#N)C(c2cccc(C(=O)Nc3ccc(C(F)(F)F)cn3)c2)C(C#N)=C(C)N1` [compound 60, 3-(3,5-dicyano-1,4-dihydro-2,6-dimethyl-4-pyridinyl)-N-[5-(trifluoromethyl)-2-pyridinyl]-benzamide], the concentration for half-maximal inhibition (IC50) lay within 500 to 2500 nM.
To `COC(=O)c1cccc(C2C(C#N)=C(C)NC(c3ccc(N)cc3)=C2C#N)c1` (centres unmarked) [compound 236, 3-[2-(4-aminophenyl)-3,5-dicyano-1,4-dihydro-6-methyl-4-pyridinyl]-benzoic acid, methyl ester] belongs 100 to 500 nM; to `CCOC(=O)N1CCN(Cc2n[nH]c3ccc(C4C(C#N)=C(C)NC(C)=C4C#N)cc23)CC1` [167.1, 4-[5-(3,5-Dicyano-2,6-dimethyl-1,4-dihydro-pyridin-4-yl)-1H-indazol-3-ylmethyl]-piperazine-1-carboxylic acid ethyl ester, TFA salt], below 100 nM; to `CC1=C(C#N)C(c2cccc(C(=O)Nc3ccc(C)cn3)c2)C(C#N)=C(C)N1` [compound 51, 3-(3,5-dicyano-1,4-dihydro-2,6-dimethyl-4-pyridinyl)-N-(5-methyl-2-pyridinyl)-benzamide], 100 to 500 nM.
Consider `CC1=C(C#N)C(c2ccc3[nH]nc(NCc4ccc(N(C)CCO)cc4)c3c2)C(C#N)=C(C)N1` [compound 172, 1,4-dihydro-4-[3-[[[4-[(2-hydroxyethyl)methylamino]phenyl]methyl]amino]-H-indazol-5-yl]-2,6-dimethyl-3,5-pyridinedicarbonitrile], for which the IC50 is below 100 nM.
`CC1=C(C#N)C(c2cccc(C(=O)Nc3nccs3)c2)C(C#N)=C(C)N1` [compound 61, 3-(3,5-dicyano-1,4-dihydro-2,6-dimethyl-4-pyridinyl)-N-2-thiazolyl-benzamide]: the IC50 is 100 to 500 nM.
The result for `CC1=C(C#N)C(c2ccc3[nH]nc(CO)c3c2)C(C#N)=C(C)N1` [compound 144, 1,4-dihydro-4-[3-(hydroxymethyl)-1H-indazol-5-yl]-2,6-dimethyl-3,5-pyridinedicarbonitrile] reads below 100 nM; that for `CCC1=C(C#N)C(c2ccc3[nH]ncc3c2)C(C#N)=C(CC)N1` [compound 269, 2,6-diethyl-1,4-dihydro-4-(1H-indazol-5-yl)-3,5-pyridinedicarbonitrile], below 100 nM; that for `CC1=C(C#N)C(c2ccc3[nH]nc(N)c3c2)C(C#N)=C(C)N1CCO` [compound 299, 4-(3-amino-1H-indazol-5-yl)-1,4-dihydro-1-(2-hydroxyethyl)-2,6-dimethyl-3,5-pyridinedicarbonitrile], below 100 nM.
The result for `CC1=C(C#N)C(c2ccc3[nH]nc(NCC4CCN(C(=O)OC(C)(C)C)CC4)c3c2)C(C#N)=C(C)N1` [compound 131, 4-[[[5-(3,5-dicyano-1,4-dihydro-2,6-dimethyl-4-pyridinyl)-1H-indazol-3-yl]-amino]methyl]-1-piperidinecarboxylic acid 1,1-dimethylethyl ester] reads 500 to 2500 nM; that for `CC1=C(C#N)C(c2cnc3[nH]ncc3c2)C(C#N)=C(C)N1` [compound 204, 1,4-dihydro-2,6-dimethyl-4-(1H-pyrazolo[3,4-b]pyridin-5-yl)-3,5-pyridinedicarbonitrile], below 100 nM; that for `CC1=C(C#N)C(c2ccc3[nH]nc(C=O)c3c2)C(C#N)=C(C)N1` [compound 145, 4-(3-formyl-1H-indazol-5-yl)-1,4-dihydro-2,6-dimethyl-3,5-pyridinedicarbonitrile], below 100 nM.
The result for `CC1=C(C#N)C(c2ccc3[nH]nc(Br)c3c2)C(C#N)=C(C)N1` [compound 151, 4-(3-bromo-1H-indazol-5-yl)-1,4-dihydro-2,6-dimethyl-3,5-pyridinedicarbonitrile] reads below 100 nM.
Consider `CC1=C(C#N)C(c2cccc(C(=O)Nc3ccccn3)c2)C(C#N)=C(C)N1` [compound 43, 3-(3,5-dicyano-1,4-dihydro-2,6-dimethyl-4-pyridinyl)-N-2-pyridinyl-benzamide], for which the IC50 was below 100 nM.
Consider `CC1=C(C#N)C(c2ccc3[nH]nc(-c4cnn(C5CCNCC5)c4)c3c2)C(C#N)=C(C)N1` [compound 157, 1,4-dihydro-2,6-dimethyl-4-[3-[1-(4-piperidinyl)-1H-pyrazol-4-yl]-1H-indazol-5-yl]-3,5-pyridinedicarbonitrile], for which the IC50 was below 100 nM.
To `CC1=C(C#N)C(c2ccc3[nH]nc(CN4CCN(CCO)CC4)c3c2)C(C#N)=C(C)N1` [compound 166, 1,4-dihydro-4-[3-[[4-(2-hydroxyethyl)-1-piperazinyl]methyl]-1H-indazol-5-yl]-2,6-dimethyl-3,5-pyridinedicarbonitrile] belongs below 100 nM; to `CC1=C(C#N)C(c2cccc(C(=O)NCCc3ccncc3)c2)C(C#N)=C(C)N1` [compound 23, 3-(3,5-dicyano-1,4-dihydro-2,6-dimethyl-4-pyridinyl)-N-[2-(4-pyridinyl)ethyl]-benzamide], 500 to 2500 nM.
In the case of `CC1=C(C#N)C(c2ccc3[nH]ncc3c2)C(C#N)=C(c2ccc(C(=O)NCCN3CCOCC3)cc2)N1` (centres unmarked) [compound 261, 4-[3,5-dicyano-1,4-dihydro-4-(1H-indazol-5-yl)-6-methyl-2-pyridinyl]-N-[2-(4-morpholinyl)ethyl]-benzamide], the half-maximal inhibitory concentration (IC50) is below 100 nM.
Take `CC1=C(C#N)C(c2ccc3[nH]nc(C(=O)NCCN(C)C)c3c2)C(C#N)=C(C)N1` [103.1, 5-(3,5-dicyano-1,4-dihydro-2,6-dimethyl-4-pyridinyl)-N-[2-(dimethylamino)-ethyl]-1H-indazole-3-carboxamide, TFA salt]: the IC50 is below 100 nM.
Turning to `COC(=O)c1cccc(C2C(C#N)=C(C)NC(C)=C2C#N)c1` [compound 10, 3-(3,5-dicyano-1,4-dihydro-2,6-dimethyl-4-pyridinyl)-benzoic acid, methyl ester], the IC50 lay in the range of 100 to 500 nM.
To `CC1=C(C#N)C(c2ccc3[nH]ncc3c2)C(C#N)=C(c2ccnc(NCCN3CCOCC3)c2)N1` (centres unmarked) [compound 278, 1,4-dihydro-4-(1H-indazol-5-yl)-6-methyl-2′-[[2-(4-morpholinyl)ethyl]amino]-[2,4′-bipyridine]-3,5-dicarbonitrile] belongs below 100 nM; to `CC1=C(C#N)C(c2cccc(C(=O)Nc3cccc(N)n3)c2)C(C#N)=C(C)N1` [compound 68, N-(6-amino-2-pyridinyl)-3-(3,5-dicyano-1,4-dihydro-2,6-dimethyl-4-pyridinyl)-benzamide], 100 to 500 nM; to `CCOC(=O)CN1C(C)=C(C#N)C(c2ccc3[nH]ncc3c2)C(C#N)=C1C` [compound 290, 3,5-dicyano-4-(1H-indazol-5-yl)-2,6-dimethyl-1(4H)-pyridineacetic acid ethyl ester], below 100 nM.
To `CC1=C(C#N)C(c2cccc(NC(=O)c3ccncc3)c2)C(C#N)=C(C)N1` [compound 57, N-[3-(3,5-dicyano-1,4-dihydro-2,6-dimethyl-4-pyridinyl)phenyl]-4-pyridinecarboxamide] belongs 500 to 2500 nM; to `CC1=C(C#N)C(c2ccc3[nH]ncc3c2)C(C#N)=C(c2cccc([N+](=O)[O-])c2)N1` (centres unmarked) [compound 250, 1,4-dihydro-4-(1H-indazol-5-yl)-2-methyl-6-(3-nitrophenyl)-3,5-pyridinedicarbonitrile], below 100 nM.
To `CC1=C(C#N)C(c2ccc3[nH]nc(-c4ccncc4)c3c2)C(C#N)=C(C)N1` [94.2, 1,4-dihydro-2,6-dimethyl-4-[3-(4-pyridinyl)-1H-indazol-5-yl]-3,5-pyridinedicarbonitrile, acetic acid salt] belongs below 100 nM; to `CC1=C(C#N)C(c2ccc3[nH]nc(-c4cccs4)c3c2)C(C#N)=C(C)N1` [compound 178, 1,4-dihydro-2,6-dimethyl-4-[3-(2-thienyl)-1H-indazol-5-yl]-3,5-pyridinedicarbonitrile], below 100 nM.
For `CC1=C(C#N)C(c2ccc3[nH]nc(N)c3c2)C(C#N)=C(C)N1C` [compound 288, 4-(3-amino-1H-indazol-5-yl)-1,4-dihydro-1,2,6-trimethyl-3,5-pyridinedicarbonitrile], the IC50 is below 100 nM.
To `CC1=C(C#N)C(c2ccc3[nH]nc(Cl)c3c2)C(C#N)=C(C)N1CCO` [compound 297, 4-(3-chloro-1H-indazol-5-yl)-1,4-dihydro-1-(2-hydroxyethyl)-2,6-dimethyl-3,5-pyridinedicarbonitrile] belongs below 100 nM.
